From the supplement of paper PMC10307832

Assays:
Experiment in all cases: relative viability (nuclei count vs DMSO), 5 days (fraction); higher = more cells survive
NCI-H1944 = tested on: NCI-H1944
How it was run: (§1)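 Relative viability divides the nuclei count in treated wells by that in vehicle wells. Lung cancer cell lines were seeded in 1536-well plates, dosed by pin tool the next day, and fixed and stained after 5 days in one step with final 0.05% Triton X-100, 1% formaldehyde and 1 ug/ml Hoechst. Dosing was a single drug or a fixed anchor-drug dose plus five library-drug doses (not always all listed) in √10 steps, and values are medians of duplicate plates imaged at 4×.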

UMC-11 = tested on: UMC-11
How it was run: as §1

LXF-289 = tested on: LXF-289
How it was run: as §1

LC-2-ad = tested on: LC-2-ad
How it was run: as §1

COR-L 105 = tested on: COR-L 105
How it was run: as §1

NCI-H2170 = tested on: NCI-H2170
How it was run: as §1

HCC-78 = tested on: HCC-78
How it was run: as §1

A-427 = tested on: A-427
How it was run: as §1

HCC-366 = tested on: HCC-366
How it was run: as §1

HOP-62 = tested on: HOP-62
How it was run: as §1

NCI-H2009 = tested on: NCI-H2009
How it was run: as §1

LU99A = tested on: LU99A
How it was run: as §1

NCI-H1915 = tested on: NCI-H1915
How it was run: as §1

EPLC-272H = tested on: EPLC-272H
How it was run: as §1

NCI-H1666 = tested on: NCI-H1666
How it was run: as §1

NCI-H2085 = tested on: NCI-H2085
How it was run: as §1

NCI-H358 = tested on: NCI-H358
How it was run: as §1

NCI-H460 = tested on: NCI-H460
How it was run: as §1

SK-LU-1 = tested on: SK-LU-1
How it was run: as §1

NCI-H1792 = tested on: NCI-H1792
How it was run: as §1

Cc1sc2c(c1C)C(c1ccc(Cl)cc1)=N[C@@H](CC(=O)OC(C)(C)C)c1nnc(C)n1-2 [JQ1] + C[C@@H](Oc1cc(-c2cnn(C3CCNCC3)c2)cnc1N)c1c(Cl)ccc(F)c1Cl [Crizotinib] (partner 1 µM)
relative viability (NCI-H1944; first compound 0.04 µM): 1.02 | relative viability (NCI-H1944; first compound 0.1265 µM): 0.905 | relative viability (NCI-H1944; first compound 0.4 µM): 0.719 | relative viability (NCI-H1944; first compound 1.265 µM): 0.574 | relative viability (NCI-H1944; first compound 4 µM): 0.447 | relative viability (UMC-11; first compound 0.04 µM): 0.501 | relative viability (UMC-11; first compound 0.1265 µM): 0.659 | relative viability (UMC-11; first compound 0.4 µM): 0.345 | relative viability (UMC-11; first compound 1.265 µM): 0.0933 | relative viability (UMC-11; first compound 4 µM): 0.0983 | relative viability (LXF-289; first compound 0.04 µM): 0.84 | relative viability (LXF-289; first compound 0.1265 µM): 0.746 | relative viability (LXF-289; first compound 0.4 µM): 0.743 | relative viability (LXF-289; first compound 1.265 µM): 0.677 | relative viability (LXF-289; first compound 4 µM): 0.479 | relative viability (LC-2-ad; first compound 0.04 µM): 0.44 | relative viability (LC-2-ad; first compound 0.1265 µM): 0.348 | relative viability (LC-2-ad; first compound 0.4 µM): 0.308 | relative viability (LC-2-ad; first compound 1.265 µM): 0.277 | relative viability (LC-2-ad; first compound 4 µM): 0.258 | relative viability (COR-L 105; first compound 0.04 µM): 0.705 | relative viability (COR-L 105; first compound 0.1265 µM): 0.25 | relative viability (COR-L 105; first compound 0.4 µM): 0.403 | relative viability (COR-L 105; first compound 1.265 µM): 0.245 | relative viability (COR-L 105; first compound 4 µM): 0.267 | relative viability (NCI-H2170; first compound 0.04 µM): 0.997 | relative viability (NCI-H2170; first compound 0.1265 µM): 1.12 | relative viability (NCI-H2170; first compound 0.4 µM): 0.72 | relative viability (NCI-H2170; first compound 1.265 µM): 0.599 | relative viability (NCI-H2170; first compound 4 µM): 0.517 | relative viability (HCC-78; first compound 0.04 µM): 0.314 | relative viability (HCC-78; first compound 0.1265 µM): 0.33 | relative viability (HCC-78; first compound 0.4 µM): 0.348 | relative viability (HCC-78; first compound 1.265 µM): 0.275 | relative viability (HCC-78; first compound 4 µM): 0.251 | relative viability (A-427; first compound 0.04 µM): 0.997 | relative viability (A-427; first compound 0.1265 µM): 0.947 | relative viability (A-427; first compound 0.4 µM): 0.658 | relative viability (A-427; first compound 1.265 µM): 0.691 | relative viability (A-427; first compound 4 µM): 0.516 | relative viability (HCC-366; first compound 0.04 µM): 0.457 | relative viability (HCC-366; first compound 0.4 µM): 0.41 | relative viability (HCC-366; first compound 1.265 µM): 0.243 | relative viability (HCC-366; first compound 4 µM): 0.103 | relative viability (HOP-62; first compound 0.04 µM): 0.714 | relative viability (HOP-62; first compound 0.1265 µM): 0.711 | relative viability (HOP-62; first compound 0.4 µM): 0.299 | relative viability (HOP-62; first compound 1.265 µM): 0.119 | relative viability (HOP-62; first compound 4 µM): 0.11 | relative viability (NCI-H2009; first compound 0.04 µM): 0.969 | relative viability (NCI-H2009; first compound 0.1265 µM): 0.627 | relative viability (NCI-H2009; first compound 0.4 µM): 0.572 | relative viability (NCI-H2009; first compound 1.265 µM): 0.301 | relative viability (NCI-H2009; first compound 4 µM): 0.211 | relative viability (LU99A; first compound 0.04 µM): 0.554 | relative viability (LU99A; first compound 0.1265 µM): 0.533 | relative viability (LU99A; first compound 0.4 µM): 0.278 | relative viability (LU99A; first compound 1.265 µM): 0.231 | relative viability (LU99A; first compound 4 µM): 0.198 | relative viability (NCI-H1915; first compound 0.04 µM): 0.891 | relative viability (NCI-H1915; first compound 0.1265 µM): 0.829 | relative viability (NCI-H1915; first compound 0.4 µM): 0.735 | relative viability (NCI-H1915; first compound 1.265 µM): 0.462 | relative viability (NCI-H1915; first compound 4 µM): 0.233 | relative viability (EPLC-272H; first compound 0.04 µM): 0.904 | relative viability (EPLC-272H; first compound 0.1265 µM): 0.759 | relative viability (EPLC-272H; first compound 0.4 µM): 0.885 | relative viability (EPLC-272H; first compound 1.265 µM): 0.364 | relative viability (EPLC-272H; first compound 4 µM): 0.37 | relative viability (NCI-H1666; first compound 0.04 µM): 0.771 | relative viability (NCI-H1666; first compound 0.1265 µM): 0.841 | relative viability (NCI-H1666; first compound 0.4 µM): 0.669 | relative viability (NCI-H1666; first compound 1.265 µM): 0.451 | relative viability (NCI-H1666; first compound 4 µM): 0.481 | relative viability (NCI-H2085; first compound 0.04 µM): 0.745 | relative viability (NCI-H2085; first compound 0.1265 µM): 0.629 | relative viability (NCI-H2085; first compound 0.4 µM): 0.651 | relative viability (NCI-H2085; first compound 1.265 µM): 0.458 | relative viability (NCI-H2085; first compound 4 µM): 0.448 | relative viability (NCI-H358; first compound 0.04 µM): 0.498 | relative viability (NCI-H358; first compound 0.1265 µM): 0.43 | relative viability (NCI-H358; first compound 0.4 µM): 0.473 | relative viability (NCI-H358; first compound 1.265 µM): 0.228 | relative viability (NCI-H358; first compound 4 µM): 0.25 | relative viability (NCI-H460; first compound 0.04 µM): 0.806 | relative viability (NCI-H460; first compound 0.1265 µM): 0.597 | relative viability (NCI-H460; first compound 0.4 µM): 0.532 | relative viability (NCI-H460; first compound 1.265 µM): 0.0339 | relative viability (NCI-H460; first compound 4 µM): 0.0299 | relative viability (SK-LU-1; first compound 0.04 µM): 0.96 | relative viability (SK-LU-1; first compound 0.1265 µM): 0.615 | relative viability (SK-LU-1; first compound 0.4 µM): 0.481 | relative viability (SK-LU-1; first compound 1.265 µM): 0.193 | relative viability (SK-LU-1; first compound 4 µM): 0.148 | relative viability (NCI-H1792; first compound 0.04 µM): 0.968 | relative viability (NCI-H1792; first compound 0.4 µM): 0.948 | relative viability (NCI-H1792; first compound 1.265 µM): 0.768 | relative viability (NCI-H1792; first compound 4 µM): 0.644
